US11957684B2, “Treatment of heavy menstrual bleeding associated with uterine fibroids” (Sumitomo Pharma Switzerland GmbH, priority 2016, dated 2024)

How the values were obtained:
endometriosis = test: Example 7 12-week study in endometriosis: efficacy (VAS, B&B, EHP-30); format: in vivo, human; details: for Physician B&B, dysmenorrhea / Physician B&B, dyspareunia / Physician B&B, non-menstrual pelvic pain / change from baseline in EHP-30, Control and powerlessness / change from baseline in EHP-30, Self-image / change from baseline in EHP-30, emotional well-being / change from baseline in EHP-30, pain / change from baseline in EHP-30, social support: Week 12; for Modified (patient) B&B, deep dyspareunia / Modified (patient) B&B, dysmenorrhea / Modified (patient) B&B, non-menstrual pelvic pain / change from baseline in proportion of days with usage of analgesics: end of treatment
Experimental: Secondary endpoints included VAS score for pelvic pain, dysmenorrhea, and dyspareunia during the treatment period. […] Subjects recorded in the patient diary every day until the end of treatment. […] Designated examinations and evaluations were performed at each visit. As used in the examples, the VAS score was evaluated using a 100 mm scale. For pain intensity, the scale was anchored by “no pain” (score of 0) and “pain as bad as you can imagine” (score of 100). […] The above items were evaluated using a patient diary that was distributed by the sponsor. Subjects filled out the patient diary every day during the treatment period or until early termination. If taking prohibited analgesics, subjects recorded this fact in the patient diary along with the accompanying pain symptoms before use of analgesics. As used in the examples, pain during menstruation and pelvic pain unrelated to menstruation were evaluated using scores on the M-B&B and B&B. The M-B&B scores were recorded by subjects on the patient diary supplied by the sponsor. Subjects filled out the patient diary every day during the treatment period or until early termination. If taking prohibited analgesics, subjects recorded this fact in the patient diary along with the accompanying pain symptoms before use of analgesics. The investigator or subinvestigator assessed each patient's pain through interviews and filled out a B&B once a month. The items that were assessed are shown below. The M-B&B score included: dysmenorrhea (severe, moderate, mild, no pain, or no menstruation); pelvic pain (severe, moderate, mild, or no pain); deep dyspareunia (severe, moderate, mild, no pain, or no intercourse). The B&B score included: dysmenorrhea (severe, moderate, mild, none, or not applicable); dyspareunia (severe, moderate, mild, none, or not applicable); pelvic pain (severe, moderate, mild, or none); pelvic tenderness (severe, moderate, mild, or none); and induration (severe, moderate, mild, or none). As used in the examples, the EHP-30 score was obtained by subjects assessing and recording their own QOL using the EHP-30 questionnaire.

women with endometriosis = test: Example 7: bone mineral density and serum hormones; format: in vivo, human; details: for percent change of bone mineral density from baseline: 12 wk
Excerpt: Subjects were diagnosed with endometriosis within the 5 years before screening and had dysmenorrhea and pelvic pain, of which either 1 or both was at least “moderate” as determined by the investigator using the Biberoglu & Behrman (B&B) scale. […] Secondary endpoints included VAS score for pelvic pain, dysmenorrhea, and dyspareunia during the treatment period.

[1] = system: LH, FSH, estradiol (E2), progesterone (P), CA125; test: Example 8A: serum LH, FSH, E2, P and CA125; format: in vivo, human; details: for median change in serum E2 from baseline / median change in serum FSH from baseline / median change in serum LH from baseline / median change in serum progesterone (P) from baseline / subjects with CA125 less than or equal to 35 U/mL: Week 24
Excerpt: Study participants were premenopausal (≥20 years) Japanese women with endometriosis (EM)-associated pain who completed a preceding 12-week study and were eligible to continue for an additional 12-week treatment were enrolled. The participants has confirmed normal regular menstrual cycles (25 to 38 days per cycle) and diagnosed to have EM and EM-related dysmenorrhea and pelvic pain of at least moderate severity as determined by the physician B&B scale. The primary endpoint was the safety including assessment of change in bone mineral density (BMD) using dual energy x-ray absorptiometry, adverse events, vital signs, weight, 12-lead electrocardiograms, and clinical laboratory tests. […] Baseline characteristics were similar between randomized patients and all patients who entered the extension study.

uterine fibroids = test: Example 10 phase 3 study versus leuprorelin in uterine fibroids: efficacy; format: in vivo, human; details: between Week 6 and Week 12
Experimental: Subjects were aged 20 years or older inclusive, with uterine fibroids. […] The number of sites for this study was approximately 40.
The leuprorelin subjects were administered 1.88 mg leuprorelin, 3.75 mg leuprorelin, or placebo subcutaneously once every 4 weeks. The duration of treatment for both groups was 24 weeks, and the follow-up period was 4 weeks.
Assessment included answers to the uterine fibroid symptom and quality of life questionnaire provided in FIGS. 3A-3C; answers to the work productivity and activity impairment questionnaire: general health provided in FIGS. 66A-66B; clinical laboratory tests for hematology, chemistries, urinalysis, hormone, and biochemical bone metabolism markers.

[2] = system: women with uterine fibroids; test: Example 10: safety
Excerpt: Secondary endpoints for safety included: Adverse events (AEs), vital signs, weight, standard 12-lead electrocardiogram (ECG), clinical laboratory tests, BMD, biochemical bone metabolism markers (serum N-telopeptide [NTELOP] and bone specific alkaline phosphatase [BAP])

[3] = Compound 1 40 mg, leuprolide acetate 3.75 mg/4 wk

CONC(=O)Nc1ccc(-c2sc3c(c2CN(C)C)c(=O)n(-c2ccc(OC)nn2)c(=O)n3Cc2c(F)cccc2F)cc1 [Compound 1, N-(4-(1-(2,6-difluorobenzyl)-5-((dimethylamino)methyl)-3-(6-methoxy-3-pyridazinyl)-2,4-dioxo-1,2,3,4-tetrahydrothieno[2,3-d]pyrimidin-6-yl)phenyl)-N′-methoxyurea]
Physician B&B, dysmenorrhea (endometriosis; 10 mg): −1.0 | Physician B&B, dyspareunia (endometriosis; 10 mg): −0.2 | Physician B&B, non-menstrual pelvic pain (endometriosis; 10 mg): −0.6 | change from baseline in EHP-30, Control and powerlessness (endometriosis; 10 mg): −13.7 | change from baseline in EHP-30, Self-image (endometriosis; 10 mg): −5.5 | change from baseline in EHP-30, emotional well-being (endometriosis; 10 mg): −8.3 | change from baseline in EHP-30, pain (endometriosis; 10 mg): −18.3 | change from baseline in EHP-30, social support (endometriosis; 10 mg): −6.6 | change from baseline in mean VAS score, pelvic pain (endometriosis; 10 mg, end of 12-wk treatment period): −6.168±9.1411 mm | Modified (patient) B&B, deep dyspareunia (endometriosis; 10 mg): −0.08 | Modified (patient) B&B, dysmenorrhea (endometriosis; 10 mg): −0.48 | Modified (patient) B&B, non-menstrual pelvic pain (endometriosis; 10 mg): −0.21 | change from baseline in proportion of days with usage of analgesics (endometriosis; 10 mg): −6.6 | Physician B&B, dysmenorrhea (endometriosis; 20 mg): −1.5 | Physician B&B, dyspareunia (endometriosis; 20 mg): −0.2 | Physician B&B, non-menstrual pelvic pain (endometriosis; 20 mg): −0.8 | change from baseline in EHP-30, Control and powerlessness (endometriosis; 20 mg): −14.6 | change from baseline in EHP-30, Self-image (endometriosis; 20 mg): −6.3 | change from baseline in EHP-30, emotional well-being (endometriosis; 20 mg): −8.9 | change from baseline in EHP-30, pain (endometriosis; 20 mg): −17.8 | change from baseline in EHP-30, social support (endometriosis; 20 mg): −8.4 | change from baseline in mean VAS score, pelvic pain (endometriosis; 20 mg, end of 12-wk treatment period): −8.070±13.3707 mm | Modified (patient) B&B, deep dyspareunia (endometriosis; 20 mg): −0.10 | Modified (patient) B&B, dysmenorrhea (endometriosis; 20 mg): −0.76 | Modified (patient) B&B, non-menstrual pelvic pain (endometriosis; 20 mg): −0.22 | change from baseline in proportion of days with usage of analgesics (endometriosis; 20 mg): −6.3 | change from baseline in mean VAS score, pelvic pain (endometriosis; 40 mg, Day 1-28): −3.761 mm | change from baseline in mean VAS score, pelvic pain (endometriosis; 40 mg, Day 29-56): −8.960±9.8226 mm | change from baseline in mean VAS score, pelvic pain (endometriosis; 40 mg, Day 57-84): −10.464±11.0995 mm | Physician B&B, dysmenorrhea (endometriosis; 40 mg): −2.0 | Physician B&B, dyspareunia (endometriosis; 40 mg): −0.1 | Physician B&B, non-menstrual pelvic pain (endometriosis; 40 mg): −0.9 | change from baseline in EHP-30, Control and powerlessness (endometriosis; 40 mg): −17.2 | change from baseline in EHP-30, Self-image (endometriosis; 40 mg): −8.4 | change from baseline in EHP-30, emotional well-being (endometriosis; 40 mg): −10.4 | change from baseline in EHP-30, pain (endometriosis; 40 mg): −25.3 | change from baseline in EHP-30, social support (endometriosis; 40 mg): −6.8 | change from baseline in mean VAS score, pelvic pain (endometriosis; 40 mg, end of 12-wk treatment period): −10.418±11.0171 mm | Modified (patient) B&B, deep dyspareunia (endometriosis; 40 mg): −0.07 | Modified (patient) B&B, dysmenorrhea (endometriosis; 40 mg): −1.16 | Modified (patient) B&B, non-menstrual pelvic pain (endometriosis; 40 mg): −0.33 | change from baseline in proportion of days with usage of analgesics (endometriosis; 40 mg): −10.1 | percent change of bone mineral density from baseline (women with endometriosis; 10 mg): −0.95±1.875% | percent change of bone mineral density from baseline (women with endometriosis; 20 mg): −1.34±2.087% | percent change of bone mineral density from baseline (women with endometriosis; 40 mg): −2.08±2.220% | week from which median serum estradiol was below LLQ (women with endometriosis; [3]): 2 Week | median change in serum E2 from baseline ([1]; 10 mg): 1.0 pg/mL | median change in serum FSH from baseline ([1]; 10 mg): −0.630 mIU/mL | median change in serum LH from baseline ([1]; 10 mg): 0.300 mIU/mL | median change in serum progesterone (P) from baseline ([1]; 10 mg): 0.000 ng/mL | subjects with CA125 less than or equal to 35 U/mL ([1]; 10 mg): 75.3% | median change in serum E2 from baseline ([1]; 20 mg): -9.0 pg/mL | median change in serum FSH from baseline ([1]; 20 mg): −0.990 mIU/mL | median change in serum LH from baseline ([1]; 20 mg): −0.785 mIU/mL | median change in serum progesterone (P) from baseline ([1]; 20 mg): 0.005 ng/mL | subjects with CA125 less than or equal to 35 U/mL ([1]; 20 mg): 81.1% | median change in serum E2 from baseline ([1]; 40 mg): -39.0 pg/mL | median change in serum FSH from baseline ([1]; 40 mg): −3.550 mIU/mL | median change in serum LH from baseline ([1]; 40 mg): −2.480 mIU/mL | median change in serum progesterone (P) from baseline ([1]; 40 mg): -0.080 ng/mL | subjects with CA125 less than or equal to 35 U/mL ([1]; 40 mg): 88.5% | week at which median serum E2 decreased to LLQ [1, 3]: 2 Week | proportion of subjects with a PBAC <10 (uterine fibroids): 82.2% | AE: Arthralgia ([2]; 24 wk): 8(5.8) n(%) | AE: Bone density decreased ([2]; 24 wk): 6(4.3) n(%) | AE: Bone resorption test abnormal ([2]; 24 wk): 7(5.1) n(%) | AE: Dizziness ([2]; 24 wk): 9(6.5) n(%) | AE: Gamma-glutamyl transferase increased ([2]; 24 wk): 7(5.1) n(%) | AE: Genital haemorrhage ([2]; 24 wk): 7(5.1) n(%) | AE: Headache ([2]; 24 wk): 21(15.2) n(%) | AE: Hot flush ([2]; 24 wk): 59(42.8) n(%) | AE: Hyperhidrosis ([2]; 24 wk): 13(9.4) n(%) | AE: Malaise ([2]; 24 wk): 8(5.8) n(%) | AE: Menorrhagia ([2]; 24 wk): 34(24.6) n(%) | AE: Metrorrhagia ([2]; 24 wk): 68(49.3) n(%) | AE: Resorption bone increased ([2]; 24 wk): 7(5.1) n(%) | AE: Somnolence ([2]; 24 wk): 7(5.1) n(%) | AE: Viral upper respiratory tract infection ([2]; 24 wk): 39(28.3) n(%) | AEs Leading to Study Drug Discontinuation ([2]; 24 wk): 9(6.5) n(%) | Deaths ([2]; 24 wk): 0(0.0) n(%) | SAEs Leading to Study Drug Discontinuation ([2]; 24 wk): 0(0.0) n(%) | Serious Treatment-Emergent AEs ([2]; 24 wk): 0(0.0) n(%) | Serious Treatment-Emergent AEs, Not Related ([2]; 24 wk): 0(0.0) n(%) | Serious Treatment-Emergent AEs, Related ([2]; 24 wk): 0(0.0) n(%) | Treatment-Emergent AEs ([2]; 24 wk): 131(94.9) n(%) | Treatment-Emergent AEs, Not Related ([2]; 24 wk): 11(8.0) n(%) | Treatment-Emergent AEs, Related ([2]; 24 wk): 120(87.0) n(%) | AE leading to discontinuation: Abdominal pain ([2]; in vivo): 0(0.0) n(%) | AE leading to discontinuation: Arthralgia ([2]; in vivo): 1(0.7) n(%) | AE leading to discontinuation: Back pain ([2]; in vivo): 0(0.0) n(%) | AE leading to discontinuation: Blood pressure increased ([2]; in vivo): 0(0.0) n(%) | AE leading to discontinuation: Depression ([2]; in vivo): 1(0.7) n(%) | AE leading to discontinuation: Drug eruption ([2]; in vivo): 0(0.0) n(%) | AE leading to discontinuation: Fatigue ([2]; in vivo): 1(0.7) n(%) | AE leading to discontinuation: Headache ([2]; in vivo): 1(0.7) n(%) | AE leading to discontinuation: Hot flush ([2]; in vivo): 4(2.9) n(%) | AE leading to discontinuation: Hypertension ([2]; in vivo): 0(0.0) n(%) | AE leading to discontinuation: Malaise ([2]; in vivo): 1(0.7) n(%) | AE leading to discontinuation: Nausea ([2]; in vivo): 0(0.0) n(%) | AE leading to discontinuation: Pyrexia ([2]; in vivo): 0(0.0) n(%) | AE leading to discontinuation: Tenosynovitis ([2]; in vivo): 1(0.7) n(%) | AE leading to discontinuation: Tenosynovitis stenosans ([2]; in vivo): 1(0.7) n(%) | ALP > 3 × ULN ([2]; in vivo): 0 (0.0) n (%) | ALT > 3 × ULN ([2]; in vivo): 3 (2.2) n (%) | ALT > 5 × ULN ([2]; in vivo): 1 (0.7) n (%) | ALT and AST > 3 × ULN ([2]; in vivo): 2 (1.4) n (%) | ALT or AST > 3 × ULN with Tbili > 2 × ULN ([2]; in vivo): 0 (0.0) n (%) | AST > 3 × ULN ([2]; in vivo): 2 (1.4) n (%) | AST > 5 × ULN ([2]; in vivo): 0 (0.0) n (%) | Any Markedly Abnormal LFT ([2]; in vivo): 3 (2.2) n (%)
